# Reference: PubChem BioAssay (NCI)
#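 GI50 marks 50% less growth. TGI: total growth inhibition.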
# Key:
# Assay in all cases: NCI tumour cell line growth inhibition, 384-well format
# 786-0 renal = tested on: 786-0 renal
# A498 renal = tested on: A498 renal
# ACHN renal = tested on: ACHN renal
# CCRF-CEM leukemia = tested on: CCRF-CEM leukemia
# COLO 205 colon = tested on: COLO 205 colon
# DU-145 prostate = tested on: DU-145 prostate
# HCC-2998 colon = tested on: HCC-2998 colon
# HCT-15 colon = tested on: HCT-15 colon
# HL-60(TB) leukemia = tested on: HL-60(TB) leukemia
# HOP-62 NSCLC = tested on: HOP-62 NSCLC
# HOP-92 NSCLC = tested on: HOP-92 NSCLC
# HS 578T breast = tested on: HS 578T breast
# HT29 colon = tested on: HT29 colon
# IGROV1 ovarian = tested on: IGROV1 ovarian
# KM12 colon = tested on: KM12 colon
# LOX IMVI melanoma = tested on: LOX IMVI melanoma
# M14 melanoma = tested on: M14 melanoma
# MALME-3M melanoma = tested on: MALME-3M melanoma
# MCF7 breast = tested on: MCF7 breast
# MDA-MB-468 breast = tested on: MDA-MB-468 breast
# MOLT-4 leukemia = tested on: MOLT-4 leukemia
# NCI-H226 lung = tested on: NCI-H226 lung
# NCI-H23 lung = tested on: NCI-H23 lung
# NCI-H460 NSCLC = tested on: NCI-H460 NSCLC
# NCI-H522 lung = tested on: NCI-H522 lung
# NCI/ADR-RES ovarian = tested on: NCI/ADR-RES ovarian
# OVCAR-3 ovarian = tested on: OVCAR-3 ovarian
# OVCAR-4 ovarian = tested on: OVCAR-4 ovarian
# OVCAR-5 ovarian = tested on: OVCAR-5 ovarian
# PC-3 prostate = tested on: PC-3 prostate
# RPMI-8226 leukemia = tested on: RPMI-8226 leukemia
# RXF 393 renal = tested on: RXF 393 renal
# SF-295 CNS = tested on: SF-295 CNS
# SF-539 CNS = tested on: SF-539 CNS
# SK-MEL-2 melanoma = tested on: SK-MEL-2 melanoma
# SK-MEL-5 melanoma = tested on: SK-MEL-5 melanoma
# SK-OV-3 ovarian = tested on: SK-OV-3 ovarian
# SN12C renal = tested on: SN12C renal
# SNB-19 CNS = tested on: SNB-19 CNS
# SNB-75 CNS = tested on: SNB-75 CNS
# SR leukemia = tested on: SR leukemia
# SW-620 colon = tested on: SW-620 colon
# T-47D breast = tested on: T-47D breast
# TK-10 renal = tested on: TK-10 renal
# U251 glioblastoma = tested on: U251 glioblastoma
# UACC-62 melanoma = tested on: UACC-62 melanoma
# UO-31 renal = tested on: UO-31 renal
smiles,measurement,setting,value
CN1CCN(c2ccc(-c3cccc(CN4CCOCC4)c3)cc2NC(=O)c2c[nH]c(=O)cc2C(F)(F)F)CC1,GI50,786-0 renal,10.4 µM
same,TGI,786-0 renal,34.2 µM
same,GI50,A498 renal,17.3 µM
same,TGI,A498 renal,40.7 µM
same,GI50,ACHN renal,37.9 µM
same,TGI,ACHN renal,> 100 µM
same,GI50,CCRF-CEM leukemia,6.98 µM
same,TGI,CCRF-CEM leukemia,13.8 µM
same,GI50,COLO 205 colon,8.59 µM
same,TGI,COLO 205 colon,> 89 µM
same,GI50,DU-145 prostate,19.5 µM
same,TGI,DU-145 prostate,> 100 µM
same,GI50,HCC-2998 colon,29.9 µM
same,TGI,HCC-2998 colon,> 63.9 µM
same,GI50,HCT-15 colon,12.3 µM
same,TGI,HCT-15 colon,44.8 µM
same,GI50,HL-60(TB) leukemia,8.87 µM
same,TGI,HL-60(TB) leukemia,20.1 µM
same,GI50,HOP-62 NSCLC,21 µM
same,TGI,HOP-62 NSCLC,> 65.3 µM
same,GI50,HOP-92 NSCLC,24.9 µM
same,TGI,HOP-92 NSCLC,> 77.4 µM
same,GI50,HS 578T breast,12.2 µM
same,TGI,HS 578T breast,34.4 µM
same,GI50,HT29 colon,14.2 µM
same,TGI,HT29 colon,32 µM
same,GI50,IGROV1 ovarian,31.3 µM
same,TGI,IGROV1 ovarian,98.2 µM
same,GI50,KM12 colon,15.9 µM
same,TGI,KM12 colon,> 87.6 µM
same,GI50,LOX IMVI melanoma,9.13 µM
same,TGI,LOX IMVI melanoma,23 µM
same,GI50,M14 melanoma,16 µM
same,TGI,M14 melanoma,29.8 µM
same,GI50,MALME-3M melanoma,14.7 µM
same,TGI,MALME-3M melanoma,28.1 µM
same,GI50,MCF7 breast,16.8 µM
same,TGI,MCF7 breast,> 62.7 µM
same,GI50,MDA-MB-468 breast,12 µM
same,TGI,MDA-MB-468 breast,28.9 µM
same,GI50,MOLT-4 leukemia,5.86 µM
same,TGI,MOLT-4 leukemia,11.5 µM
same,GI50,NCI-H226 lung,52.5 µM
same,TGI,NCI-H226 lung,> 100 µM
same,GI50,NCI-H23 lung,17.3 µM
same,TGI,NCI-H23 lung,> 86.1 µM
same,GI50,NCI-H460 NSCLC,8.79 µM
same,TGI,NCI-H460 NSCLC,23.5 µM
same,GI50,NCI-H522 lung,22.8 µM
same,TGI,NCI-H522 lung,69.6 µM
same,GI50,NCI/ADR-RES ovarian,> 58.1 µM
same,TGI,NCI/ADR-RES ovarian,> 100 µM
same,GI50,OVCAR-3 ovarian,18.9 µM
same,TGI,OVCAR-3 ovarian,> 74.4 µM
same,GI50,OVCAR-4 ovarian,50.4 µM
same,TGI,OVCAR-4 ovarian,> 100 µM
same,GI50,OVCAR-5 ovarian,40.9 µM
same,TGI,OVCAR-5 ovarian,> 100 µM
same,GI50,PC-3 prostate,27 µM
same,TGI,PC-3 prostate,> 94.6 µM
same,GI50,RPMI-8226 leukemia,17.9 µM
same,TGI,RPMI-8226 leukemia,43.4 µM
same,GI50,RXF 393 renal,11.4 µM
same,TGI,RXF 393 renal,33.3 µM
same,GI50,SF-295 CNS,17.8 µM
same,TGI,SF-295 CNS,56.8 µM
same,GI50,SF-539 CNS,12.3 µM
same,TGI,SF-539 CNS,28.7 µM
same,GI50,SK-MEL-2 melanoma,20.9 µM
same,TGI,SK-MEL-2 melanoma,43.3 µM
same,GI50,SK-MEL-5 melanoma,13.6 µM
same,TGI,SK-MEL-5 melanoma,26.6 µM
same,GI50,SK-OV-3 ovarian,> 61.1 µM
same,TGI,SK-OV-3 ovarian,> 100 µM
same,GI50,SN12C renal,> 62.1 µM
same,TGI,SN12C renal,> 100 µM
same,GI50,SNB-19 CNS,46.3 µM
same,TGI,SNB-19 CNS,> 100 µM
same,GI50,SNB-75 CNS,22.2 µM
same,TGI,SNB-75 CNS,> 68.3 µM
same,GI50,SR leukemia,12.2 µM
same,TGI,SR leukemia,24.8 µM
same,GI50,SW-620 colon,11.7 µM
same,TGI,SW-620 colon,> 45.2 µM
same,GI50,T-47D breast,23.1 µM
same,TGI,T-47D breast,> 88.9 µM
same,GI50,TK-10 renal,30.5 µM
same,TGI,TK-10 renal,> 90.4 µM
same,GI50,U251 glioblastoma,12.1 µM
same,TGI,U251 glioblastoma,30.9 µM
same,GI50,UACC-62 melanoma,19 µM
same,TGI,UACC-62 melanoma,62.8 µM
same,GI50,UO-31 renal,14.5 µM
same,TGI,UO-31 renal,> 100 µM
